Experimental data reported in patent publication US9481654B2, “Compositions and methods for inhibition of the JAK pathway” (Rigel Pharmaceuticals, Inc., priority 2006, dated 2016).

Legend:
[1] = system: IL-4 stimulated CD23 upregulation in human Ramos B cells (JAK-1/JAK-3, Stat-6); experiment: Assay for Ramos B-Cell Line Stimulated with IL-4 (CD23 upregulation, FACS); assay type: cell-based; conditions: Table III Example 3
Procedure, shortened: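 Log-phase Ramos B cells (5×10^4 per point, RPMI with 5% serum) pre-incubated with compound or DMSO 1 h at 37° C, then stimulated with IL-4 at 50 units/mL final for 20-24 h. CD23 upregulation measured by staining and flow cytometry.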

[2] = system: IFNγ induced ICAM-1 (CD54) up-regulation in U937 human monocytic cells (JAK/Stat pathway); experiment: U937 IFNγ ICAM1 FACS Assay; assay type: cell-based; conditions: Table III Example 6, 10 ng/mL IFNγ, 18-24 hours
Procedure, shortened: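 U937 cells (100,000 per well) were pre-incubated 30 min at 37 °C with serially 3-fold diluted compound, then stimulated with IFNγ for 18–24 h. Surface ICAM-1 was measured by flow cytometry as the geometric mean of ICAM-APC on gated live cells. EC50 values were calculated from dose curves, with % live cells also recorded.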

Question: How did the IC50 [1] turn out when `Cc1cnc(Nc2ccc(S(N)(=O)=O)cc2)nc1Nc1ccc2c(c1)CCN(S(=O)(=O)C1CC1)C2` [II-1, N2-(4-aminosulfonyl)phenyl-N4-[(N-cyclopropylsulfonyl)-1,2,3,4-tetrahydroisoquinolin-6-yl]-5-methyl-2,4-pyrimidinediamine] was run?
Answer: 42.3 nM

Question: And the IC50 [2]?
Answer: 229 nM

Question: Which IC50 ([1]; Homo sapiens, Ramos) does the source give for `C#CCNS(=O)(=O)Cc1ccc(Nc2nc(Nc3ccc(C)c(S(N)(=O)=O)c3)ncc2F)cc1` [Compound I-5, N2-(3-Aminosulfonyl-4-methylphenyl)-5-fluoro-N4-[4-(prop-2-ynylaminosulfonylmethyl)phenyl]-2,4-pyrimidinediamine] here?
Answer: 130 nM

Question: And the IC50 ([2]; Homo sapiens, U-937)?
Answer: 710 nM

Question: `C#CCNS(=O)(=O)c1ccc(Nc2ncc(C)c(Nc3ccc(CNS(=O)(=O)C4CC4)cc3)n2)cc1` [Compound I-164, N4-(4-cyclopropylsulfonylaminomethyl)phenyl-5-methyl-N2-(4-propargylaminosulfonyl)phenyl-2,4-pyrimidinediamine] was tested. Which IC50 [1] did it give?
Answer: 61.3 nM

Question: And the IC50 [2]?
Answer: 160 nM

Question: For `Cc1ccc(Nc2ncc(C)c(Nc3ccc(CNS(=O)(=O)C4CC4)cc3)n2)cc1S(=O)(=O)NC(C)C` [Compound I-189, N4-(4-cyclopropylsulfonylaminomethyl)phenyl-N2-(3-isopropylaminosulfonyl-4-methyl)phenyl-5-methyl-2,4-pyrimidinediamine], which IC50 [1] is on record?
Answer: 35.2 nM

Question: What about the IC50 [2] of the same compound?
Answer: 153 nM

Question: What does the source list for `CCS(=O)(=O)NCc1ccc(Nc2nc(Nc3cccc(S(N)(=O)=O)c3)ncc2C)cc1` [Compound I-21, N2-(3-aminosulfonyl)phenyl-N4-(4-ethylsulfonylaminomethyl)phenyl-5-methyl-2,4-pyrimidinediamine]?
Answer: IC50 [1]: 81.2 nM; IC50 [2]: 362 nM

Question: `Cc1ccc(Nc2ncc(F)c(Nc3ccc(CNS(=O)(=O)C4CCCCC4)cc3)n2)cc1S(N)(=O)=O` [Compound I-73, N2-(3-aminosulfonyl-4-methyl)phenyl-N4-(4-cyclohexylsulfonylaminomethyl)phenyl-5-fluoro-2,4-pyrimidinediamine] was tested. Which IC50 [1] did it give?
Answer: 89.9 nM

Question: What about the IC50 [2] of the same compound?
Answer: 312 nM

Question: Which results are given for `Cc1cnc(Nc2cc(S(N)(=O)=O)cc(S(N)(=O)=O)c2)nc1Nc1ccc(CNS(=O)(=O)C2CC2)cc1` [Compound I-84, N4-(4-cyclopropylsulfonylaminomethyl)phenyl-N2-(3,5-diaminosulfonyl)phenyl-5-methyl-2,4-pyrimidinediamine]?
Answer: IC50 [1]: 355 nM; IC50 [2]: 928 nM

Question: `Cc1ccc(Nc2ncc(C)c(Nc3ccc(CCNS(=O)(=O)C4CC4)cc3)n2)cc1S(N)(=O)=O` [Compound I-55, N2-(3-aminosulfonyl-4-methyl)phenyl-N4-[4-(2-cyclopropylsulfonylamino)ethyl]phenyl-5-methyl-2,4-pyrimidinediamine] was tested. Which IC50 [1] did it give?
Answer: 78.8 nM

Question: And the IC50 [2]?
Answer: 360 nM

Question: Which results are given for `Cc1ccc(Nc2ncc(C)c(Nc3ccc(CNS(=O)(=O)C4CC4)cc3)n2)cc1S(N)(=O)=O` [Compound I-47, N2-(3-aminosulfonyl-4-methyl)phenyl-N4-(4-cyclopropylsulfonylaminomethyl)phenyl-5-methyl-2,4-pyrimidinediamine]?
Answer: IC50 [1]: 28 nM; IC50 [2]: 104 nM

Question: What does the source list for `Cc1cnc(Nc2ccc(S(N)(=O)=O)cc2)nc1Nc1ccc(CNS(=O)(=O)C(C)C)cc1` [Compound I-123, N2-(4-aminosulfonyl)phenyl-N4-(4-isopropylsulfonylaminomethyl)phenyl-5-methyl-2,4-pyrimidinediamine]?
Answer: IC50 [1]: 83.6 nM; IC50 [2]: 164 nM

Question: With `Cc1ccc(Nc2ncc(F)c(Nc3ccc(CNS(=O)(=O)CC(F)(F)F)cc3)n2)cc1S(N)(=O)=O` [Compound I-50, N2-(3-aminosulfonyl-4-methyl)phenyl-5-fluoro-N4-(4-trifluoroethylsulfonylaminomethyl)phenyl-2,4-pyrimidinediamine] as the compound, how does the IC50 [1] read?
Answer: 34.3 nM

Question: What about the IC50 [2] of the same compound?
Answer: 548 nM

Question: With `Cc1ccc(Nc2ncc(C)c(Nc3ccc(CNS(=O)(=O)C4CC4)cc3)n2)cc1S(=O)(=O)NCc1ccccc1` [Compound I-195, N2-(3-benzylaminosulfonyl-4-methyl)phenyl-N4-(4-cyclopropylsulfonylaminomethyl)phenyl-5-methyl-2,4-pyrimidinediamine] as the compound, how does the IC50 [1] read?
Answer: 66.4 nM

Question: What about the IC50 [2] of the same compound?
Answer: 230 nM

Question: Which results are given for `CNS(=O)(=O)c1ccc(Nc2ncc(C)c(Nc3cccc(CNS(=O)(=O)C4CC4)c3)n2)cc1` [Compound I-207, N4-(3-cyclopropylsulfonylaminomethyl)phenyl-5-methyl-N2-(4-methylaminosulfonyl)phenyl-2,4-pyrimidinediamine]?
Answer: IC50 [1]: 86.5 nM; IC50 [2]: 312 nM

Question: What does the source list for `CCS(=O)(=O)NCc1ccc(Nc2nc(Nc3ccc(C)c(S(N)(=O)=O)c3)ncc2F)cc1` [Compound I-10, N2-(3-aminosulfonyl-4-methyl)phenyl-N4-(4-ethylsulfonylaminomethyl)phenyl-5-fluoro-2,4-pyrimidinediamine]?
Answer: IC50 [1]: 94 nM; IC50 [2]: 477 nM

Question: How did the IC50 [1] turn out when `CCS(=O)(=O)NCCc1ccc(Nc2nc(Nc3ccc(C)c(S(N)(=O)=O)c3)ncc2C)cc1` [Compound I-40, N2-(3-aminosulfonyl-4-methyl)phenyl-N4-[4-(2-ethylsulfonylamino)ethyl]phenyl-5-methyl-2,4-pyrimidinediamine] was run?
Answer: 68.1 nM

Question: What about the IC50 [2] of the same compound?
Answer: 341 nM

Question: How did the IC50 [1] turn out when `Cc1ccc(Nc2ncc(C)c(Nc3cccc(CNS(=O)(=O)C4CC4)c3)n2)cc1S(N)(=O)=O` [Compound I-52, N2-(3-aminosulfonyl-4-methyl)phenyl-N4-(3-cyclopropylsulfonylaminomethyl)phenyl-5-methyl-2,4-pyrimidinediamine] was run?
Answer: 68.5 nM

Question: And the IC50 [2]?
Answer: 203 nM

Question: `Cc1cnc(Nc2ccc(S(N)(=O)=O)cc2)nc1Nc1cccc(CN(C)S(=O)(=O)C2CC2)c1` [Compound I-124, N2-(4-aminosulfonyl)phenyl-N4-[3-(N-cyclopropylsulfonyl-N-methyl)aminomethyl]phenyl-5-methyl-2,4-pyrimidinediamine] was tested. Which IC50 [1] did it give?
Answer: 89.8 nM

Question: What about the IC50 [2] of the same compound?
Answer: 373 nM

Question: Which IC50 [1] does the source give for `CCS(=O)(=O)NCc1cccc(Nc2nc(Nc3ccc(C)c(S(N)(=O)=O)c3)ncc2F)c1` [Compound I-13, N2-(3-aminosulfonyl-4-methyl)phenyl-N4-(3-ethylsulfonylaminomethyl)phenyl-5-fluoro-2,4-pyrimidinediamine] here?
Answer: 136 nM

Question: What about the IC50 [2] of the same compound?
Answer: 536 nM

Question: How did the IC50 [1] turn out when `Cc1ccc(Nc2ncc(F)c(Nc3ccc(CNS(=O)(=O)C(C)C)cc3)n2)cc1S(N)(=O)=O` [Compound I-67, N2-(3-aminosulfonyl-4-methyl)phenyl-5-fluoro-N4-(4-isopropylsulfonylaminomethyl)phenyl-2,4-pyrimidinediamine] was run?
Answer: 82.4 nM

Question: And the IC50 [2]?
Answer: 321 nM

Question: How did the IC50 [1] turn out when `NS(=O)(=O)c1ccc(Nc2ncc(F)c(Nc3ccc(CNS(=O)(=O)CC(F)(F)F)cc3)n2)cc1` [Compound I-48, N2-(4-aminosulfonyl)phenyl-5-fluoro-N4-(4-trifluoroethylsulfonylaminomethyl)phenyl-2,4-pyrimidinediamine] was run?
Answer: 263 nM

Question: And the IC50 [2]?
Answer: 3760 nM

Question: `COCCNS(=O)(=O)c1cc(Nc2ncc(C)c(Nc3cccc(CNS(=O)(=O)C4CC4)c3)n2)ccc1C` [Compound I-210, N4-(3-cyclopropylsulfonylaminomethyl)phenyl-N2-[3-(2-methoxyethyl)aminosulfonyl-4-methyl]phenyl-5-methyl-2,4-pyrimidinediamine] was tested. Which IC50 [1] did it give?
Answer: 128 nM

Question: And the IC50 [2]?
Answer: 175 nM

Question: Which results are given for `CCCN(Cc1ccc(Nc2nc(Nc3cccc(S(N)(=O)=O)c3)ncc2C)cc1)S(=O)(=O)C1CC1` [Compound I-80, N2-(3-aminosulfonyl)phenyl-N4-[4-(N-cyclopropylsulfonyl-N-propylamino)methyl]phenyl-5-methyl-2,4-pyrimidinediamine]?
Answer: IC50 [1]: 37.1 nM; IC50 [2]: 143 nM

Question: With `CCCNS(=O)(=O)c1cc(Nc2ncc(C)c(Nc3ccc(CNS(=O)(=O)C4CC4)cc3)n2)ccc1C` [Compound I-187, N4-(4-cyclopropylsulfonylaminomethyl)phenyl-5-methyl-N2-(4-methyl-3-propylaminosulfonyl)phenyl-2,4-pyrimidinediamine] as the compound, how does the IC50 [1] read?
Answer: 72.4 nM

Question: And the IC50 [2]?
Answer: 174 nM

Question: Which results are given for `Cc1ccc(Nc2ncc(C)c(Nc3ccc(CN(C)S(=O)(=O)C4CC4)cc3)n2)cc1S(N)(=O)=O` [Compound I-126, N2-(3-aminosulfonyl-4-methyl)phenyl-N4-[4-(N-cyclopropylsulfonyl-N-methyl)aminomethyl]phenyl-5-methyl-2,4-pyrimidinediamine]?
Answer: IC50 [1]: 104 nM; IC50 [2]: 224 nM

Question: With `CCS(=O)(=O)NCCc1ccc(Nc2nc(Nc3cccc(S(N)(=O)=O)c3)ncc2C)cc1` [Compound I-39, N2-(3-aminosulfonyl)phenyl-N4-[4-(2-ethylsulfonylamino)ethyl]phenyl-5-methyl-2,4-pyrimidinediamine] as the compound, how does the IC50 [1] read?
Answer: 46.2 nM

Question: What about the IC50 [2] of the same compound?
Answer: 604 nM

Question: What does the source list for `NS(=O)(=O)c1ccc(Nc2ncc(Cl)c(Nc3ccc(CNS(=O)(=O)C4CC4)cc3)n2)cc1` [Compound I-115, N2-(4-aminosulfonyl)phenyl-5-chloro-N4-(4-cyclopropylsulfonylaminomethyl)phenyl-2,4-pyrimidinediamine]?
Answer: IC50 [1]: 23.3 nM; IC50 [2]: 105 nM

Question: For `COCCCNS(=O)(=O)c1ccc(Nc2ncc(C)c(Nc3ccc(CNS(=O)(=O)C4CC4)cc3)n2)cc1` [Compound I-181, N4-(4-cyclopropylsulfonylaminomethyl)phenyl-N2-[4-(3-methoxypropyl)aminosulfonyl]phenyl-5-methyl-2,4-pyrimidinediamine], which IC50 [1] is on record?
Answer: 73.1 nM

Question: What about the IC50 [2] of the same compound?
Answer: 243 nM

Question: Which IC50 [1] does the source give for `C#CCNS(=O)(=O)c1cccc(Nc2ncc(C)c(Nc3ccc(CNS(=O)(=O)C4CC4)cc3)n2)c1` [Compound I-165, N4-(4-cyclopropylsulfonylaminomethyl)phenyl-5-methyl-N2-(3-propargylaminosulfonyl)phenyl-2,4-pyrimidinediamine] here?
Answer: 34.8 nM

Question: What about the IC50 [2] of the same compound?
Answer: 150 nM
